Reference: ChEMBL document CHEMBL2429856, “Benzazepinones and benzoxazepinones as antagonists of inhibitor of apoptosis proteins (IAPs) selective for the second baculovirus IAP repeat (BIR2) domain” (J Med Chem, 2013)
Each block holds one compound with its values, some of them ahead of it.

Legend:
[1] = Oral bioavailability in mouse at 10 mg/kg; assay type: ADME, organism-based; details: in vivo
Cytochrome P450 3A4 [2] = target: T1, Cytochrome P450 3A4 (Homo sapiens, UniProt P08684); test: Induction of CYP3A4 (unknown origin); assay type: ADME
T1 sequence (P08684 whole entry): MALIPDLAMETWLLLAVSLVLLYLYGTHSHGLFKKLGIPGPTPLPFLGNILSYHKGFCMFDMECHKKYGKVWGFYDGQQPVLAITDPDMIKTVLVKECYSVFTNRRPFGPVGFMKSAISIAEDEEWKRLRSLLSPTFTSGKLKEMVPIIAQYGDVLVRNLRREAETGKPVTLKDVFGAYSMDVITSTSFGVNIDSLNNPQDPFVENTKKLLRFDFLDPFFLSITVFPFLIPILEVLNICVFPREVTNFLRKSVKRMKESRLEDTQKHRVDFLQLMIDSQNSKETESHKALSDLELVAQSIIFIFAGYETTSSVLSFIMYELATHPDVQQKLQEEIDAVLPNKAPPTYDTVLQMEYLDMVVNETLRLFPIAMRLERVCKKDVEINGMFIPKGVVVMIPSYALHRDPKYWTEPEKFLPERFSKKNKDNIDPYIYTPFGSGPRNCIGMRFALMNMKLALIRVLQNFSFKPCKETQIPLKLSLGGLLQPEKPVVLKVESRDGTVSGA

[3] = AUC in mouse at 10 mg/kg, po; assay type: ADME, organism-based; design: dose 10 mg/kg, route oral; details: plasma
[4] = Volume of distribution at steady state in mouse at 1 mg/kg, iv; assay type: ADME, organism-based; design: dose 1 mg/kg, route intravenous; details: in vivo, read-out: Vdss
[5] = Clearance in mouse at 1 mg/kg, iv; assay type: ADME, organism-based; design: dose 1 mg/kg, route intravenous; details: in vivo
[6] = target: T2, Baculoviral IAP repeat-containing protein 2 (Homo sapiens, UniProt Q13490); test: Inhibition of His-thrombin-TEV-tagged cIAP1 BIR2 domain (174 to 256) (unknown origin) after 1 hr by TR-FRET assay
T2 sequence (Q13490 whole entry, the tested form may be a part): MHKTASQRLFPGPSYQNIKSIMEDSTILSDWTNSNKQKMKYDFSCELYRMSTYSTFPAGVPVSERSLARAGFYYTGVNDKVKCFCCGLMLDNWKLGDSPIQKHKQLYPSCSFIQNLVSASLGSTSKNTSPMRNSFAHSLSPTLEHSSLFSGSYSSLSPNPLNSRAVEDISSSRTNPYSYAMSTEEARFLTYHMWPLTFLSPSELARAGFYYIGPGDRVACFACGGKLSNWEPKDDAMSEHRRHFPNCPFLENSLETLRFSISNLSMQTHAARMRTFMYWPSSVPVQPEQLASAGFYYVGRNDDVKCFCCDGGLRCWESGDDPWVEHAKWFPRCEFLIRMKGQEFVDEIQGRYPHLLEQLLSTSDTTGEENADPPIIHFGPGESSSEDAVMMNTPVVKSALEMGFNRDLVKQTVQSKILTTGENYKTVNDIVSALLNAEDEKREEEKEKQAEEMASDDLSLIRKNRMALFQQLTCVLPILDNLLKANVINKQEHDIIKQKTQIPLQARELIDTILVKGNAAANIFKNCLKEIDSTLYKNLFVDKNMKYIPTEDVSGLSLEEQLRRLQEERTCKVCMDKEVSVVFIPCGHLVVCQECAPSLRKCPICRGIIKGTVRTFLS

Cytochrome P450 3A4 [7] = target: T1, Cytochrome P450 3A4; test: Time dependent inhibition of CYP3A4 (unknown origin); assay type: ADME
Cytochrome P450 3A4 [8] = target: T1, Cytochrome P450 3A4; test: Inhibition of CYP3A4 (unknown origin); assay type: ADME
[9] = AUC in mouse at 1 mg/kg, iv; assay type: ADME, organism-based; design: dose 1 mg/kg, route intravenous; details: plasma
[10] = target: T2, Baculoviral IAP repeat-containing protein 2; test: Inhibition of His-thrombin-TEV-tagged cIAP1 BIR3 domain (260 to 352) (unknown origin) after 1 hr by TR-FRET assay
[11] = Half life in mouse at 1 mg/kg, iv; assay type: ADME, organism-based; design: dose 1 mg/kg, route intravenous; details: in vivo
[12] = Cmax in mouse at 1 mg/kg, iv; assay type: ADME, organism-based; design: dose 1 mg/kg, route intravenous; details: in vivo
[13] = Half life in mouse at 10 mg/kg, po; assay type: ADME, organism-based; design: dose 10 mg/kg, route oral; details: in vivo
[14] = Cmax in mouse at 10 mg/kg, po; assay type: ADME, organism-based; design: dose 10 mg/kg, route oral; details: in vivo
[15] = target: T3, E3 ubiquitin-protein ligase XIAP (Homo sapiens, UniProt P98170)
T3 sequence (P98170 whole entry): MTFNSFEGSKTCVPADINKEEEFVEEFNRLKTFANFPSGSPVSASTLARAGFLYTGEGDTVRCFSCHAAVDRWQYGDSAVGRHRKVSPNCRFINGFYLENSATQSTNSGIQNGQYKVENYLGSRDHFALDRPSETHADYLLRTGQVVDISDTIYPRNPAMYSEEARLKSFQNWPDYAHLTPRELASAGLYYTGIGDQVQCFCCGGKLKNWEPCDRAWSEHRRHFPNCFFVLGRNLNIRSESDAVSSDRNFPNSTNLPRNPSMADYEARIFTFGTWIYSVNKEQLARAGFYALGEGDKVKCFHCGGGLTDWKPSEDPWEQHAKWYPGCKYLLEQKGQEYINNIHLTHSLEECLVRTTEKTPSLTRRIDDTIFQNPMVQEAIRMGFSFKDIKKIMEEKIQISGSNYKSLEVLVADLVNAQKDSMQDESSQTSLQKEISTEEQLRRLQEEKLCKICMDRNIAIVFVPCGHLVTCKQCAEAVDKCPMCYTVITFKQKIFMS

Hepatocyte [16] = test: Drug metabolism in human hepatocytes assessed as demethylation of methoxy group of naphthalene; assay type: ADME, cell-based
Hepatocyte [17] = test: Drug metabolism in rat hepatocytes assessed as demethylation of N-methyl-L-alanine; assay type: ADME, cell-based
Hepatocyte [18] = test: Drug metabolism in human hepatocytes assessed as demethylation of N-methyl-L-alanine; assay type: ADME, cell-based
Hepatocyte [19] = test: Drug metabolism in rat hepatocytes assessed as demethylation of methoxy group of naphthalene; assay type: ADME, cell-based
[20] = Metabolic stability in rat blood assessed as compound remaining at 1 uM after 4 hrs by LC-MS/MS analysis; assay type: ADME, tissue-based; details: read-out: Stability
[21] = Clearance in rat at 2 mg/kg, iv; assay type: ADME, organism-based; design: dose 2 mg/kg, route intravenous; details: in vivo
Plasma = test: In vivo metabolic stability in rat plasma assessed as hydrolysis of the alanine amide at 4 mg/kg, iv; assay type: ADME, organism-based; design: dose 4 mg/kg, route intravenous
[22] = In vivo metabolic stability in rat urine assessed as hydrolysis of the alanine amide at 4 mg/kg, iv; assay type: ADME, organism-based; design: dose 4 mg/kg, route intravenous
[23] = target: T3, E3 ubiquitin-protein ligase XIAP; remark: listed apart in the source

bioavailability [1]: 53%
Activity (Cytochrome P450 3A4 [2]): Active
AUC [3]: 2860 ng·h/mL
Vd [4]: 8.6 L/kg
clearance [5]: 33 mL/min/kg
IC50 [6]: 0.271 µM
inhibition (INH) (Cytochrome P450 3A4 [7]): Active
inhibition (INH) (Cytochrome P450 3A4 [8]): Active
AUC [9]: 543 ng·h/mL
IC50 [10]: > 55 µM
half-life [11]: 6.9 h
Cmax [12]: 495 ng/mL
half-life [13]: 5 h
Cmax [14]: 647 ng/mL
Compound: CN[C@@H](C)C(=O)N[C@@H]1C(=O)N(Cc2c(C#N)n(-c3ccccc3C#N)c3ccccc23)c2ccccc2OC12CCOCC2.Cl

Compound: CN[C@@H](C)C(=O)N[C@H]1CCc2ccccc2N(Cc2c(OC)ccc3ccccc23)C1=O
IC50 [15]: > 54 µM

Compound: CN[C@@H](C)C(=O)N[C@H]1CCc2ccccc2N(Cc2c(C)ccc3ccccc23)C1=O
IC50 [15]: > 54 µM

IC50 [15]: > 54.8 µM
Compound: CN[C@@H](C)C(=O)N[C@@H]1C(=O)N(Cc2nn(-c3ccccc3C#N)c3ccccc23)c2ccccc2OC12CCOCC2

Compound: CN[C@@H](C)C(=O)N[C@H]1CCc2ccccc2N(Cc2cccc3ccccc23)C1=O
IC50 [15]: > 54 µM

Drug metabolism (Hepatocyte [16]): Active
Drug metabolism (Hepatocyte [17]): Active
Drug metabolism (Hepatocyte [18]): Active
Drug metabolism (Hepatocyte [19]): Active
remaining at 4 h, 1 µM [20]: 88%
Compound: CN[C@@H](C)C(=O)N[C@@H]1C(=O)N(Cc2c(OC)ccc3cc(Br)ccc23)c2ccccc2OC12CCOCC2.Cl

Compound: CN[C@@H](C)C(=O)N[C@H]1CCc2ccccc2N(CCc2ccccc2)C1=O
IC50 [15]: > 54 µM

Compound: CN[C@@H](C)C(=O)N[C@H]1CCc2ccccc2N(Cc2ccc3ccccc3c2)C1=O
IC50 [15]: > 54 µM

Compound: CCN[C@@H](C)C(=O)N[C@H]1CCc2ccccc2N(Cc2c(OC)ccc3cc(Br)ccc23)C1=O
IC50 [15]: > 54 µM

Compound: CN[C@@H](C)C(=O)N[C@H]1CCc2ccccc2N(Cc2ccc(C)c3ccccc23)C1=O
IC50 [15]: > 54 µM

Compound: CN[C@@H](C)C(=O)N[C@H]1CCc2ccccc2N(Cc2c(OC)ccc3cc(Br)ccc23)C1=O.Cl
clearance [21]: 116 mL/min/kg
IC50 [15]: > 54 µM
remaining at 4 h, 1 µM [20]: 40%
Stability (Plasma): Unstable
Stability [22]: Unstable

Compound: COc1ccc2cc(Br)ccc2c1CN1C(=O)[C@@H](NC(=O)[C@@H](N)[C@H](C)O)CCc2ccccc21
IC50 [15]: > 54 µM

Compound: CN[C@@H](C)C(=O)N[C@H]1CCc2ccccc2N(Cc2ccccc2)C1=O
IC50 [15]: > 54 µM

remaining at 4 h, 1 µM [20]: 7%
Compound: CN[C@@H](C)C(=O)N[C@H]1COc2ccccc2N(Cc2c(OC)ccc3cc(Br)ccc23)C1=O

Compound: CN[C@H](C)C(=O)N[C@H]1CCc2ccccc2N(Cc2c(OC)ccc3cc(Br)ccc23)C1=O
IC50 [15]: > 54 µM

IC50 [15]: > 54.2 µM
IC50 [23]: 14.4 µM
Compound: C[C@H](N)C(=O)N[C@@H]1C(=O)N(C)CCc2ccccc21
